The source of these data is ChEMBL document CHEMBL5338709, “Design, synthesis, and structure-activity relationship of TAK-418 and its derivatives as a novel series of LSD1 inhibitors with lowered risk of hematological side effects” (Eur J Med Chem, 2022).

For orientation: AUC(0-t) means exposure summed from dosing to a finite time, without extrapolation to infinity. Low values mean low exposure, high ones high exposure. In general, IC50 refers to the concentration that inhibits the measured activity by half.

The structures appear in SMILES notation. Where only a bound is given, the exact number is not on record here.

For data set [1], the system named is Mus musculus. Description: Improvement of recognition memory in NR1 hypofunction mouse assessed as novelty discrimination index at 1 mg/kg, po administered once daily for 2 weeks by novel object recognition test (reference value: 51.4 +/- 3.1%). Format: functional.
For data set [2], the system named is Mus musculus. Description: Improvement of recognition memory in NR1 hypofunction mouse assessed as novelty discrimination index at 0.3 mg/kg, po administered once daily for 2 weeks by novel object recognition test (reference value: 51.4 +/- 3.1%). The class given is functional.
Data set [3] can be described thus: AUC (0 to 24 hrs) in ICR mouse at 10 mg/kg, po. Also noted: dose 10 mg/kg, route po. The class given is ADME, organism-based. The conditions noted are these: in vivo.
The nature of data set [4]: Toxicity in ICR mouse assessed as reduction in red blood cell count upto 100 mg/kg/day, po administered for 4 days. Format: organism-based. To be noted: in vivo, 96 h, time 4 day.
A short description of data set [5]: Toxicity in ICR mouse assessed as reduction in white blood cell count upto 100 mg/kg/day, po administered for 4 days. Format: organism-based. The conditions noted are these: in vivo, 96 h, time 4 day.
Data set [6] is described as follows: Toxicity in ICR mouse assessed as reduction in platelet count upto 100 mg/kg/day, po administered for 4 days. The class given is organism-based. The conditions noted are these: in vivo, 96 h, time 4 day.
Data set [7] can be described thus: Metabolic stability in mouse liver microsomes assessed as clearance at 1 uM incubated for 15 to 30 mins in presence of NADPH generating system by LC-MS/MS analysis. The class given is ADME, Microsome. The conditions noted are these: time 15-30 min, read-out: CLH. In general terms: Microsomes from liver hold many membrane-bound enzymes, among them those of drug oxidation.

For another data set, the system named is GFI1 mRNA. Description: Hematological toxicity in human TF-1a cells assessed as fold increase in GFI1 mRNA expression at 10 uM incubated for 1 day by RT-qPCR analysis relative to control. Format: cell-based. The conditions noted are these: read-out: FC. A general note: Real-time PCR tracks product formation cycle by cycle.
The next data set concerns the target LSD1/CoREST complex (Homo sapiens, UniProt O60341). Description: Inhibition of recombinant human LSD1 (172 to 852 residues)/His-tagged human CoREST (286 to 482 residues) expressed in Escherichia coli BL21 (DE3) cells using ART(mK)QTARKSTGGKAPRKQLAGGK-Biotin as substrate assessed as increase in H3K4 methylation incubated for 40 mins.
For data set [8], the target named is Lysine-specific histone demethylase 1A (Homo sapiens, UniProt O60341). Put plainly: Inhibition of LSD1 (unknown origin).

`O=C(NC1CCOCC1)c1csc([C@@H]2C[C@H]2NCC2CC2)c1`: the figures for the Activity in the data set on Mus musculus [1] and with Mus musculus [2] were 66% and 62.7%, respectively. In [3], this compound showed an AUC(0-t) of 1050 ng·h/mL.

Take `Cc1nnc(NC(=O)c2cccc([C@@H]3C[C@H]3NCC3CC3)c2)s1`: the Activity result in [4], in data set [5] and in data set [6] was “Non-Toxic” in each case.

For the compound `Cc1nnc(NC(=O)c2cc([C@@H]3C[C@H]3NCC3CC3)cs2)s1` (racemic), the microsomal CLint at 1 µM in data set [7] turned out to be 15 µL/min/mg.

Take `O=C(NC1CCOCC1)c1csc([C@@H]2C[C@H]2NCC2CC2)c1` (racemic): the microsomal CLint at 1 µM in [7] worked out at 13 µL/min/mg.

Regarding `Cc1nnc(NC(=O)c2csc([C@@H]3C[C@H]3NCC3CC3)c2)s1` (racemic), the microsomal CLint at 1 µM in [7] was 26 µL/min/mg.

On to `O=C(Nc1cccc([C@@H]2C[C@H]2NCC2CC2)c1)c1ccccc1` (racemic), for which the fold induction at 24 h, 10 µM in the data set on GFI1 mRNA is 3.51. Further, the IC50 on LSD1/CoREST complex was found to be 1800 nM.

Turning to `O=C(Nc1ccccc1)c1cccc([C@@H]2C[C@H]2NCC2CC2)c1` (racemic), the fold induction at 24 h, 10 µM in the data set with GFI1 mRNA stood at 1.97. For the same compound, in [7], the microsomal CLint at 1 µM was 101 µL/min/mg. Moreover, the half-inhibitory concentration (IC50) on LSD1/CoREST complex worked out at 82 nM.

With `CN(C(=O)c1cccc([C@@H]2C[C@H]2NCC2CC2)c1)c1ccccc1` (racemic), the fold induction at 24 h, 10 µM with GFI1 mRNA is 9.6. Further, the IC50 on LSD1/CoREST complex worked out at 860 nM.

For the compound `O=C(NC1CCC(F)(F)CC1)c1cccc([C@@H]2C[C@H]2NCC2CC2)c1` (racemic), the microsomal CLint at 1 µM in data set [7] turned out to be 26 µL/min/mg.

`Cc1nnc(NC(=O)c2cccc([C@@H]3C[C@H]3NCC3CC3)c2)s1` (racemic): the microsomal CLint at 1 µM in data set [7] was 10 µL/min/mg.

Regarding `O=C(Nc1ccccc1)c1ccccc1[C@@H]1C[C@H]1NCC1CC1` (racemic), the half-maximal inhibitory concentration (IC50) at LSD1/CoREST complex is more than 10000 nM.

For the compound `O=C(Nc1cccnc1)c1cccc([C@@H]2C[C@H]2NCC2CC2)c1` (racemic), the fold induction at 24 h, 10 µM in the data set with GFI1 mRNA amounted to 1.53. For the same compound, in data set [7], the microsomal CLint at 1 µM stood at 47 µL/min/mg. Besides, the half-inhibitory concentration (IC50) at LSD1/CoREST complex came out at 160 nM.

Consider `O=C(Nc1ccccc1)c1ccc([C@@H]2C[C@H]2NCC2CC2)cc1` (racemic), for which the fold induction at 24 h, 10 µM in the data set with GFI1 mRNA is 10.6. The compound further registered a half-inhibitory concentration (IC50) in data set [8] of 1 nM.

As to `O=C(NC1CCOCC1)c1cccc([C@@H]2C[C@H]2NCC2CC2)c1` (racemic), the microsomal CLint at 1 µM in data set [7] was 11 µL/min/mg.

In the case of `O=C(Nc1ccc([C@@H]2C[C@H]2NCC2CC2)cc1)c1ccccc1` (racemic), the fold induction at 24 h, 10 µM with GFI1 mRNA came to 10.7. The compound also displayed a half-maximal inhibitory concentration (IC50) in data set [8] of 1.4 nM.
